Measured values reported in patent US6861426B2, “Crystal forms of lamotrigine and processes for their preparations” (Teva Pharmaceutical Industries Ltd., priority 2001, dated 2005).

Experiment: Heating of Lamotrigine Solvates/Hydrates (annealing; crystal form afterwards)
Format: physicochemical
Conditions: resulting crystal form
Experimental: All X-ray powder diffraction patterns were obtained by methods known in the art. One method employs the use of a Philips X-Ray powder diffractometer, Goniometer model 1050/70 at a scanning speed of 20 per minute. Another method employs the use of a Scintag X'TRA X-ray powder diffractometer, equipped with a solid state Si(Li) detector thermoelectrically cooled, at a scanning speed of 30 min.^−1 Scanning range […] two-theta. Copper radiation of 1.5418 Å was used. According to one embodiment, the present invention provides a process for preparing lamotrigine form A including heating lamotrigine solvates at temperatures elevated enough to remove all the solvent from the crystal, usually above 100° C. for a period of about 2 hours, preferably above 110° C. for a period of about 1 hour, more preferably at about 150° C. for a period of about ½ hour. [table]

| Crystal form after annealing at 110° C. 45 min (solid heated at 110° C. for 45 min) | Crystal form after annealing at 80° C. 60 min (solid heated at 80° C. for 60 min) | SMILES |
| --- | --- | --- |
| A + P | – | Nc1nnc(-c2cccc(Cl)c2Cl)c(N)n1 [C DMF monosolvate, 6-(2,3-Dichlorophenyl)-1,2,4-triazine-3,5-diamine] |
| – | Amorphous | Nc1nnc(-c2cccc(Cl)c2Cl)c(N)n1 [J ispropanolate, 6-(2,3-Dichlorophenyl)-1,2,4-triazine-3,5-diamine] |
